The source of these data is patent EP0466030B1, “N-acyl dipeptides and their use” (DEGUSSA AG, priority 1990, dated 1992).

In series [1] the test system is L1210 Mäuse-Leukaemiezellen. The experiment in a line: Comparative cell growth experiment with supplemented culture medium. In kind it is cell-based. As to conditions: for Zellwachstum: comparison among the three supplements L-Glutamin, L-Alanyl-L-glutamin, N-Acetyl-L-alanyl-L-glutamin; for Wachstum im Vergleich zum glutaminfreien Medium: supplemented medium versus glutamine-free medium. The source says: Weiterhin wurde überraschend festgestellt, daß N-Acyldipeptide als Quelle für die C-terminalen Aminosäuren in Nährmedien für Zellkulturen dienen können.

Series [2] in a line: Cleavage of the substrate by pig kidney homogenate (decrease of substrate followed by HPLC). The format is in vitro ADME, Schwein. As to conditions: for spezifische Aktivität des Nierenhomogenisats: 1 ml supernatant + 1 ml 0,1 M Tris/HCl (pH 7) + 1 ml 30 mM substrate solution, 37°C, HPLC; for schneller als N-Acetyl-L-tyrosin gespalten: in vitro, Schweinenierenhomogenisat, rate relative to N-Acetyl-L-tyrosin. The method, then:
0,1 Mol L-Alanyl-L-tyrosin wurden in 50 ml 2N Natronlauge gelöst. Bei 0°C wurden 0,11 Mol Acetanhydrid in 18 ml Tetrahydrofuran und 27,5 ml 4N Natronlauge so zugetropft, daß der pH-Wert des Reaktionsgemisches stets bei etwa 11 lag. Nach Beendigung der Zugabe wurde 1 Stunde lang nachgerührt, dann mit konzentrierter Salzsäure auf pH 1 angesäuert und das Volumen der Lösung auf die Hälfte eingeengt. Das N-Acetyl-L-alanyl-L-tyrosin kristallisierte aus, wurde abfiltriert, mit Wasser gewaschen und getrocknet. […] 1 ml des nach 30-minütiger Zentrifugation bei 10000 U/min erhaltenen Überstandes wurden mit 1 ml 0,1 M Tris/HCl (pH 7)-Puffer und 1 ml einer 30 mM Lösung des Substrates in 0,1 M Tris/HCl (pH7)-Puffer versetzt und bei 37°C inkubiert. Die zeitliche Abnahme der Substratkonzentration wurde durch HPLC verfolgt.

Series [3] concerns L1210 Mäuse-Leukaemiezellen. The conditions noted are these: general statement on cells, no source or experiment given; cited from earlier work.
For series [4] the following is noted: Ratten; Z. Ernährungswiss. 28 (1989), 32 - 35; cited from earlier work.

Where a SMILES comes first, the peptide text is derived from it. Bridges are numbered along the chain shown (N, C = ends). Roman numbers before positions name the chains, in order. The star is where a group is joined. Butyryl = CCCC(=O)*

`C[C@H](N)C(=O)N[C@@H](CCC(N)=O)C(=O)O` [L-Alanyl-L-glutamin] (H-Ala-Gln-OH): in series [1], the Zellwachstum result was “kein signifikanter Unterschied” and the “Wachstum im Vergleich zum glutaminfreien Medium” value is given as “deutlich erhöhtes Wachstum”. As to `CCCC(=O)N[C@@H](C)C(=O)N[C@@H](Cc1ccc(O)cc1)C(=O)O` [N-Butyryl-L-alanyl-L-tyrosin] (Butyryl-Ala-Tyr-OH), in series [2], the “spezifische Aktivität des Nierenhomogenisats” value is recorded as 660 nMol pro Minute und g Niere and the “schneller als N-Acetyl-L-tyrosin gespalten” value worked out at 15 mal. Take `CC(=O)N[C@@H](CCC(N)=O)C(=O)O` [N-Acetyl-L-glutamin]: the “von Zellen genutzt” value in series [3] was “nicht oder nur sehr schlecht genutzt”.

For `CC(=O)N[C@@H](C)C(=O)N[C@@H](Cc1ccc(O)cc1)C(=O)O` [N-Acetyl-L-alanyl-L-tyrosin] (Ac-Ala-Tyr-OH), in series [2], the “spezifische Aktivität des Nierenhomogenisats” value is given as 420 nMol pro Minute und g Niere and the “schneller als N-Acetyl-L-tyrosin gespalten” value was 10 mal. As for `NC(=O)CC[C@H](N)C(=O)O` [L-Glutamin], in series [1], the Zellwachstum entry is given as “kein signifikanter Unterschied” and the “Wachstum im Vergleich zum glutaminfreien Medium” value is “deutlich erhöhtes Wachstum”. In the case of `CC(=O)N[C@@H](C)C(=O)N[C@@H](CCC(N)=O)C(=O)O` [N-Acetyl-L-alanyl-L-glutamin] (Ac-Ala-Gln-OH), in series [1], the Zellwachstum entry is reported as “kein signifikanter Unterschied” and the “Wachstum im Vergleich zum glutaminfreien Medium” value is “deutlich erhöhtes Wachstum”. The “von den Zellen verwertet” value in series [1] (utilisation by L1210 cells as glutamine source) was “sehr gut verwertet”. Consider `CC(=O)NCC(=O)N[C@@H](CSSC[C@H](NC(=O)CNC(C)=O)C(=O)O)C(=O)O` [Bis-(acetylglycyl)-L,L-cystin] (I: Ac-Gly-Cys-OH / II: Ac-Gly-Cys-OH; disulfide I:2-II:2), for which the “Eignung als Cysteinquelle bei der parenteralen Ernährung” value in series [4] is “nicht als Cysteinquelle geeignet”.
